This is an account of results in PubChem BioAssay AID2305 (GlaxoSmithKline (GSK), 2010).

For orientation: IC50 means the midpoint of a concentration-inhibition curve.

The subject of this assay is P. falciparum 3D7 growth, pLDH absorbance. Kind of assay: P. falciparum 3D7 growth inhibition, dose response, strain 3D7 (AID 2305).

The molecule `CC(C)(C)c1ccc(CN2CCC(CNC(=O)c3cc(-c4ccccc4F)cs3)C2)cc1` (centres undefined) showed an IC50 of 0.56 µM. For `Cc1cc(C(F)(F)F)n2nc(C(=O)N(C)Cc3cncn3Cc3ccc(F)cc3)cc2n1`, the concentration for half-maximal inhibition (IC50) stood at 0.83 µM. `NCC1CCCN1Cc1ccc(-c2ccc(-c3nc4ccccc4[nH]3)s2)cc1` (centres undefined) displayed a concentration for half-maximal inhibition (IC50) of 0.93 µM. Regarding `CC1CN(Cc2ccccc2)CCN1c1ccc(NC(=O)c2cccs2)cc1` (centres undefined), the IC50 was 0.28 µM.

In turn, `O=S(=O)(c1cc(Cl)c(Cl)cc1Cl)N1CCCCC(c2ccc(C(F)(F)F)cc2)=N1` gave a half-maximal inhibitory concentration (IC50) of 0.2 µM. `COc1ccc(F)cc1-c1csc(N(c2ccc(F)cc2)C2CCNCC2)n1` gave an IC50 of 1.21 µM. In turn, `O=c1cc(NCc2ccccc2NCc2ccc(Cl)c(Cl)c2)[nH]c2ccccc12` registered a 50% inhibitory concentration (IC50) of 0.84 µM. Molecule `C=CCOc1ccc(CNC2CCN(Cc3ccccc3)CC2)cc1Br` had an IC50 of 1.42 µM. On to `CCc1ccc(C2CCN(CCCCNC(=O)c3ccc(NC(=O)c4ccc(Cl)cc4)cc3)CC2)c(OCC(=O)OC)c1`, for which the IC50 worked out at 1.03 µM. With `O=C(c1cc2nc3c(c(C(F)(F)F)n2n1)CCc1ccccc1-3)N1CCN2CCCC2C1` (centres undefined), the 50% inhibitory concentration (IC50) amounted to 0.95 µM. As for `COc1cc(NC(=O)/C=C/c2cc(F)cc(F)c2F)cc(OCCN2CCC3(CC2)OCCO3)c1`, the 50% inhibitory concentration (IC50) is 0.27 µM. Regarding `COc1cc2ncnc(Nc3ccc(OCc4ccccc4Br)c(OC)c3)c2cc1OC`, the IC50 is 0.43 µM. Molecule `c1cncc(-c2cccc(CNc3nccc(Nc4ccc(OCCN5CCOCC5)cc4)n3)c2)c1` returned an IC50 of 1.06 µM. Consider `O=C(N[C@@H](Cc1cc(F)cc(F)c1)[C@H](O)CNCc1cccc(C(F)(F)F)c1)c1cc(C2CCCC2)cc(N2CCCC2=O)c1`, for which the concentration for half-maximal inhibition (IC50) was found to be 0.8 µM. The same measure for `CO/C(=C\C=C\c1cc2cc(Cl)c(Cl)cc2[nH]1)C(=O)Nc1ccc(NCCN(C)C)nc1`: 0.77 µM; for `OC1(c2ccccc2)c2cc(Cl)ccc2OC1c1nc2c(Cl)ccc(Cl)c2o1` (centres undefined): 0.3 µM; for `COc1ccc2c(NN=Cc3cccc([N+](=O)[O-])c3)ccnc2c1`: 0.85 µM. The value for `O=c1ccc(-c2nc3cc(Cl)c(Cl)cc3n2Cc2ccc(Cl)cc2Cl)c[nH]1` was 1.11 µM; that for `CCCN(Cc1nnc(-c2cccs2)o1)C(=O)CSc1nnnn1-c1cc(C)cc(C)c1` was 0.5 µM; that for `Cc1noc(C)c1-c1ccc2c(Nc3ccc(C(F)(F)F)cc3)c(C(N)=O)cnc2c1` was 0.32 µM.

For the molecule `Cn1cccc1C(=O)C(=O)Nc1cccc(-c2ccc(-c3nc4ccc(C(F)(F)F)cc4[nH]3)cc2)c1`, the 50% inhibitory concentration (IC50) amounted to 0.79 µM. Molecule `O=C(NC1CCN(CC2(c3ccccc3)CCCC2)CC1)c1[nH]ncc1Cl` came in with an IC50 of 1.04 µM. `Cc1nc2ccccc2c(=O)n1N=Cc1ccccc1[N+](=O)[O-]`: the concentration for half-maximal inhibition (IC50) is 0.22 µM. `Cn1ccnc1Sc1ncccc1[N+](=O)[O-]` gave an IC50 of 0.97 µM. For the molecule `CCCCCCCCCCNCC(O)c1ccc(O)c(C(=O)OC)c1` (centres undefined), the IC50 turned out to be 0.72 µM. Consider `COc1ccc2nccc(N3CCC(O)(CCNCc4ccc5c(n4)NC(=O)CS5)CC3)c2n1`, for which the IC50 worked out at 0.65 µM. Molecule `O=C(CC1CCCC1)N(Cc1ccc(-c2ccc(CNC3Cc4ccccc4C3)cc2)cc1)CC1CCCCN1` (centres undefined) gave an IC50 of 1.06 µM. Consider `Clc1ccc(CNCCCCCCCNCc2ccc(Cl)c(Cl)c2)cc1Cl`, for which the half-maximal inhibitory concentration (IC50) is 0.37 µM. For `Cc1ccc(NC(=O)c2cc(Br)cc(N3CCC(N(C)C)CC3)c2)cc1F`, the IC50 was 0.84 µM. Take `COc1ccc(Oc2cnc(N)nc2N)c(C(C)C)c1`: the IC50 turned out to be 0.74 µM. On to `COc1ccc(-c2cc(-c3nc4ccc(CN)cc4[nH]3)c(=O)n(C)c2)cc1OC`, for which the IC50 stood at 1.4 µM.

Take `Cc1cccc2[nH]c(-c3cccc(-c4ccc(CN5CCN(CCO)CC5)cc4)c3)nc12`: the half-inhibitory concentration (IC50) was 0.82 µM. `N#Cc1ccc(-c2ccc(OCC(O)CN3CCCN(Cc4cccc(O)c4Cl)CC3)cc2)cc1` (centres undefined): the IC50 was found to be 0.69 µM. As to `CCCCCN(C(=O)Nc1cc(C(F)(F)F)cc(C(F)(F)F)c1)C(C)c1nc2ccccc2c(=O)n1CC` (centres undefined), the 50% inhibitory concentration (IC50) worked out at 0.79 µM. Turning to `CCOC(=O)c1ccc(NCc2ccccn2)cc1`, the concentration for half-maximal inhibition (IC50) amounted to 0.63 µM.

Turning to `COCCNCc1ccc(-c2cccc(CN(C(=O)CCC3CCCC3)C3CCN(Cc4ccccc4)CC3)c2)cc1`, the half-inhibitory concentration (IC50) was 0.94 µM. The same measure for `Nc1c(C(=O)NCCCCN2CCN(c3nsc4ccccc34)CC2)sc2ccccc12`: 1.32 µM. For `COc1cc2ncnc(Nc3ccc(OCc4ccccc4)c(OCc4ccccc4)c3)c2cc1OC`, the IC50 came out at 0.74 µM. As for `O=C(NCCCCN1CCC(c2ccc3c(c2OCc2ccncc2)CCCC3)CC1)c1ccc(NC(=O)c2ccc(Cl)cc2)cc1`, the IC50 turned out to be 0.22 µM.

`c1ccc2c(CNc3ccnc(NCc4cccc5ccccc45)n3)cccc2c1`: the 50% inhibitory concentration (IC50) came out at 0.56 µM. The molecule `N=C(N)c1ccc2[nH]c(-c3cc4cc(C(=N)N)ccc4o3)cc2c1` yielded an IC50 of 0.18 µM. Molecule `O=C1CCCN1CCCNCc1ccc(-c2cccc(-c3nc4ccccc4[nH]3)c2)cc1` yielded an IC50 of 1.02 µM. `C[C@@H](N=C(Nc1ccc(C#N)cc1O)Nc1ccccc1Cl)c1ccc(Br)cc1` came in with a concentration for half-maximal inhibition (IC50) of 0.75 µM. Regarding `Cc1cc(Oc2cc(NC(=O)c3sc4ncn(Cc5ccccc5F)c(=O)c4c3C)cc([N+](=O)[O-])c2)ccc1Cl`, the IC50 was determined as 1.15 µM.
